ChEMBL document CHEMBL3792360, “Antibacterial activity of Mannich bases derived from 2-naphthols, aromatic aldehydes and secondary aliphatic amines” (2016)
Values after ≈ are worked out from the molar mass of the structure shown.

Legend:
Type in all cases: functional
Escherichia coli [1] = assay: Antibacterial activity against Escherichia coli ATCC 35218 after 16 to 20 hrs by broth microdilution method
Escherichia coli [2] = assay: Antibacterial activity against Escherichia coli ATCC 25922 after 16 to 20 hrs by broth microdilution method
Enterococcus faecalis = assay: Antibacterial activity against Enterococcus faecalis ATCC 25912 after 16 to 20 hrs by broth microdilution method
Pseudomonas aeruginosa = assay: Antibacterial activity against Pseudomonas aeruginosa CIP 82118 after 16 to 20 hrs by broth microdilution method
Staphylococcus aureus [3] = assay: Antibacterial activity against Staphylococcus aureus […] after 16 to 20 hrs by broth microdilution method
Enterobacter cloacae = assay: Antibacterial activity against Enterobacter cloacae CIP 103475 after 16 to 20 hrs by broth microdilution method
Citrobacter freundii = assay: Antibacterial activity against Citrobacter freundii CIP 5732 after 16 to 20 hrs by broth microdilution method
Klebsiella pneumoniae = assay: Antibacterial activity against Klebsiella pneumoniae CIP 53153 after 16 to 20 hrs by broth microdilution method
Proteus vulgaris = assay: Antibacterial activity against Proteus vulgaris CIP 104989 after 16 to 20 hrs by broth microdilution method
Staphylococcus aureus [4] = assay: Antibacterial activity against methicillin-resistant Staphylococcus aureus ATCC 43300 after 16 to 20 hrs by broth microdilution method

Structure (SMILES) | MIC (Escherichia coli [1]) [µg/mL] | MIC (Escherichia coli [2]) [µg/mL] | MIC (Enterococcus faecalis) [µg/mL] | MIC (Pseudomonas aeruginosa) [µg/mL] | MIC (Staphylococcus aureus [3]) [µg/mL] | MIC (Enterobacter cloacae) [µg/mL] | MIC (Citrobacter freundii) [µg/mL] | MIC (Klebsiella pneumoniae) [µg/mL] | MIC (Proteus vulgaris) [µg/mL] | MIC (Staphylococcus aureus [4]) [µg/mL]
CC1CCN(C(c2cccc(Cl)c2)c2c(O)ccc3cc(Br)ccc23)CC1 (stereo not given) | > 512 | > 512 | > 512 | > 512 | > 512 | > 512 | > 512 | > 512 | > 512 | > 512
CC1CCN(C(c2cccs2)c2c(O)ccc3ccccc23)CC1 (stereo not given) | > 512 | > 512 | 16 (≈ 47.4 µM) | > 512 | 8 (≈ 23.7 µM) | > 512 | > 512 | > 512 | > 512 | 8 (≈ 23.7 µM)
COc1ccc2ccc(O)c(C(c3ccccc3)N3CCC(C)CC3)c2c1 (stereo not given) | > 512 | > 512 | > 512 | > 512 | 8 (≈ 22.1 µM) | > 512 | > 512 | > 512 | > 512 | > 512
COc1ccc2ccc(O)c(C(c3ccccc3)N3CCCCC3)c2c1 (stereo not given) | > 512 | > 512 | > 512 | > 512 | > 512 | > 512 | > 512 | > 512 | > 512 | > 512
CC1CCN(C(c2ccc(F)cc2)c2c(O)ccc3ccccc23)CC1 (stereo not given) | > 512 | > 512 | > 512 | > 512 | > 512 | > 512 | > 512 | > 512 | > 512 | > 512
COc1ccc2ccc(O)c(C(c3cccc4ccccc34)N3CCC(C)CC3)c2c1 (stereo not given) | > 512 | > 512 | > 512 | > 512 | > 512 | > 512 | > 512 | > 512 | > 512 | > 512
Oc1ccc2ccccc2c1C(c1cccs1)n1nnc2ccccc21 (stereo not given) | > 512 | > 512 | > 512 | > 512 | 16 (≈ 44.8 µM) | > 512 | > 512 | > 512 | > 512 | 16 (≈ 44.8 µM)
Oc1ccc2ccccc2c1C(c1ccc(Br)s1)N1CCCCC1 (stereo not given) | > 512 | > 512 | 16 (≈ 39.8 µM) | > 512 | 8 (≈ 19.9 µM) | > 512 | > 512 | > 512 | > 512 | 16 (≈ 39.8 µM)
CC1CCN(C(c2cccc3ccccc23)c2c(O)ccc3cc(Br)ccc23)CC1 (stereo not given) | > 512 | > 512 | > 512 | > 512 | > 512 | > 512 | > 512 | > 512 | > 512 | > 512
Cc1cc(C)cc(C(c2c(O)ccc3ccccc23)N2CCC(C)CC2)c1 (stereo not given) | > 512 | > 512 | > 512 | > 512 | > 512 | > 512 | > 512 | > 512 | > 512 | > 512
CC1CCN(C(c2ccc(Br)s2)c2c(O)ccc3ccccc23)CC1 (stereo not given) | > 512 | > 512 | 16 (≈ 38.4 µM) | > 512 | 8 (≈ 19.2 µM) | > 512 | > 512 | > 512 | > 512 | 16 (≈ 38.4 µM)
Oc1ccc2cc(Br)ccc2c1C(c1cccc2ccccc12)N1CCCCC1 (stereo not given) | > 512 | > 512 | > 512 | > 512 | > 512 | > 512 | > 512 | > 512 | > 512 | > 512
Oc1ccc2ccccc2c1C(c1cccs1)N1CCCC1 (stereo not given) | > 512 | > 512 | 32 (≈ 103 µM) | > 512 | 32 (≈ 103 µM) | > 512 | > 512 | > 512 | > 512 | 32 (≈ 103 µM)
COc1ccc2ccc(O)c(C(c3ccccn3)N3CCC(C)CC3)c2c1 (stereo not given) | > 512 | > 512 | > 512 | > 512 | > 512 | > 512 | > 512 | > 512 | > 512 | > 512
Cc1cc(C)cc(C(c2c(O)ccc3ccccc23)N2CCCCC2)c1 (stereo not given) | > 512 | > 512 | > 512 | > 512 | 4 (≈ 11.6 µM) | > 512 | > 512 | > 512 | > 512 | > 512
Oc1ccc2ccccc2c1C(c1ccc(F)cc1)N1CCCCC1 (stereo not given) | > 512 | > 512 | > 512 | > 512 | 8 (≈ 23.9 µM) | > 512 | > 512 | > 512 | > 512 | > 512
CC1(C)S[C@@H]2[C@H](NC(=O)[C@H](N)c3ccc(O)cc3)C(=O)N2[C@H]1C(=O)O [AMOXICILLIN] | 2 (≈ 5.47 µM) | 2 (≈ 5.47 µM) | 0.25 (≈ 0.684 µM) | > 512 | 0.06 (≈ 0.164 µM) | 256 (≈ 701 µM) | 125 (≈ 342 µM) | 256 (≈ 701 µM) | 256 (≈ 701 µM) | 8 (≈ 21.9 µM)
Oc1ccc2ccccc2c1C(c1cccs1)N1CCN(c2ccccc2)CC1 (stereo not given) | > 512 | > 512 | > 512 | > 512 | 64 (≈ 160 µM) | > 512 | > 512 | > 512 | > 512 | 16 (≈ 39.9 µM)
COc1ccc2ccc(O)c(C(c3cccs3)N3CCCCC3)c2c1 (stereo not given) | > 512 | > 512 | 32 (≈ 90.5 µM) | > 512 | 16 (≈ 45.3 µM) | > 512 | > 512 | > 512 | > 512 | 16 (≈ 45.3 µM)
Oc1ccc2ccccc2c1C(c1ccccc1)N1CCCCC1 (stereo not given) | > 512 | > 512 | > 512 | > 512 | 8 (≈ 25.2 µM) | > 512 | > 512 | > 512 | > 512 | > 512
CN(C)C(c1cccs1)c1c(O)ccc2ccccc12 (stereo not given) | > 512 | > 512 | 16 (≈ 56.5 µM) | > 512 | 16 (≈ 56.5 µM) | > 512 | > 512 | > 512 | 128 (≈ 452 µM) | 16 (≈ 56.5 µM)
Oc1ccc2cc(Br)ccc2c1C(c1ccccc1)N1CCCCC1 (stereo not given) | > 512 | > 512 | > 512 | > 512 | > 512 | > 512 | > 512 | > 512 | > 512 | > 512
Oc1ccc2ccccc2c1C(c1cccs1)N1CCCCC1 (stereo not given) | > 512 | > 512 | 32 (≈ 98.9 µM) | > 512 | 16 (≈ 49.5 µM) | > 512 | > 512 | > 512 | > 512 | 8 (≈ 24.7 µM)
Oc1ccc2cc(Br)ccc2c1C(c1cccc(Cl)c1)N1CCCCC1 (stereo not given) | > 512 | > 512 | > 512 | > 512 | 8 (≈ 18.6 µM) | > 512 | > 512 | > 512 | > 512 | > 512
